Test results from ChEMBL document CHEMBL1143276, “Synthesis and antimicrobial activities of halogenated bis(hydroxyphenyl)methanes” (2009).
In brackets after ≈: the same amount, converted by molar mass.

Tests used:
Staphylococcus aureus = assay: Antibacterial activity against Staphylococcus aureus ATCC 6538p after 24 hrs; type: functional
Micrococcus luteus = assay: Antibacterial activity against Micrococcus luteus […] after 24 hrs; type: functional
Salmonella typhimurium = assay: Antibacterial activity against Salmonella Typhimurium ATCC 14028 after 24 hrs; type: functional, Salmonella enterica subsp. enterica serovar Typhimurium; conditions: Salmonella enterica, ATCC 14028, 24 h
Proteus vulgaris = assay: Antibacterial activity against Proteus vulgaris ATCC 3851 after 24 hrs; type: functional; conditions: ATCC 3851, 24 h
Trichophyton rubrum = assay: Antifungal activity against Trichophyton rubrum IFO 9185 after 48 to 72 hrs; type: functional
Bacillus subtilis = assay: Antibacterial activity against Bacillus subtilis ATCC 6633 after 24 hrs; type: functional; conditions: ATCC 6633, 24 h
[1] = system: Trichophyton mentagrophytes; assay: Antifungal activity against Trichophyton mentagrophytes IFO 40996 after 48 to 72 hrs; type: functional
Aspergillus fumigatus = assay: Antifungal activity against Aspergillus fumigatus HIC 6094 after 48 to 72 hrs; type: functional
Candida albicans = assay: Antifungal activity against Candida albicans ATCC 10231 after 48 to 72 hrs; type: functional
Escherichia coli = assay: Antibacterial activity against Escherichia coli ATCC 25922 after 24 hrs; type: functional; conditions: ATCC 25922, 24 h

| SMILES | MIC (Staphylococcus aureus) | MIC (Micrococcus luteus) | MIC (Salmonella typhimurium) | MIC (Proteus vulgaris) | MIC (Trichophyton rubrum) | MIC (Bacillus subtilis) | MIC [1] | MIC (Aspergillus fumigatus) | MIC (Candida albicans) | MIC (Escherichia coli) |
| --- | --- | --- | --- | --- | --- | --- | --- | --- | --- | --- |
| Oc1c(Br)cc(Br)cc1Cc1cc(Br)cc(Br)c1O | 1.56 mg/L (≈ 3.02 µM) | 1.56 mg/L (≈ 3.02 µM) | 3.12 mg/L (≈ 6.05 µM) | 1.56 mg/L (≈ 3.02 µM) | > 100 mg/L | 1.56 mg/L (≈ 3.02 µM) | > 100 mg/L | > 100 mg/L | > 100 mg/L | > 100 mg/L |
| Oc1cc(Cc2cc(O)c(O)c(Br)c2Br)c(Br)c(Br)c1O | 25 mg/L (≈ 45.6 µM) | 25 mg/L (≈ 45.6 µM) | 25 mg/L (≈ 45.6 µM) | 25 mg/L (≈ 45.6 µM) | 12.5 mg/L (≈ 22.8 µM) | 25 mg/L (≈ 45.6 µM) | 1.56 mg/L (≈ 2.85 µM) | 12.5 mg/L (≈ 22.8 µM) | 25 mg/L (≈ 45.6 µM) | 50 mg/L (≈ 91.3 µM) |
| Oc1c(Cl)cc(Cl)cc1Cc1cc(Cl)cc(Cl)c1O | 0.78 mg/L (≈ 2.31 µM) | 0.78 mg/L (≈ 2.31 µM) | 3.12 mg/L (≈ 9.23 µM) | 0.78 mg/L (≈ 2.31 µM) | > 100 mg/L | 1.56 mg/L (≈ 4.62 µM) | 12.5 mg/L (≈ 37 µM) | > 100 mg/L | 100 mg/L (≈ 296 µM) | > 100 mg/L |
| Oc1cc(Cl)c(Cc2cc(O)c(O)c(Cl)c2Cl)cc1O | 12.5 mg/L (≈ 37.3 µM) | 12.5 mg/L (≈ 37.3 µM) | 25 mg/L (≈ 74.5 µM) | 25 mg/L (≈ 74.5 µM) | > 100 mg/L | 25 mg/L (≈ 74.5 µM) | 25 mg/L (≈ 74.5 µM) | > 100 mg/L | 100 mg/L (≈ 298 µM) | 100 mg/L (≈ 298 µM) |
| Oc1cc(Cc2cc(O)c(O)c(Cl)c2Cl)c(Cl)c(Cl)c1O | 25 mg/L (≈ 67.6 µM) | 25 mg/L (≈ 67.6 µM) | 25 mg/L (≈ 67.6 µM) | 25 mg/L (≈ 67.6 µM) | 50 mg/L (≈ 135 µM) | 25 mg/L (≈ 67.6 µM) | 3.12 mg/L (≈ 8.43 µM) | 50 mg/L (≈ 135 µM) | 50 mg/L (≈ 135 µM) | 50 mg/L (≈ 135 µM) |
| Oc1ccccc1Cc1cc(Cl)ccc1O | 25 mg/L (≈ 107 µM) | 25 mg/L (≈ 107 µM) | 25 mg/L (≈ 107 µM) | 25 mg/L (≈ 107 µM) | 50 mg/L (≈ 213 µM) | 25 mg/L (≈ 107 µM) | 6.25 mg/L (≈ 26.6 µM) | 50 mg/L (≈ 213 µM) | 50 mg/L (≈ 213 µM) | 50 mg/L (≈ 213 µM) |
| Oc1cc(Br)c(Cc2cc(O)c(O)cc2Br)cc1O | 25 mg/L (≈ 64.1 µM) | 12.5 mg/L (≈ 32 µM) | 25 mg/L (≈ 64.1 µM) | 25 mg/L (≈ 64.1 µM) | > 100 mg/L | 25 mg/L (≈ 64.1 µM) | 50 mg/L (≈ 128 µM) | > 100 mg/L | > 100 mg/L | > 100 mg/L |
| Oc1cc(Cc2c(Br)c(O)c(O)c(Br)c2Br)c(Br)c(Br)c1O | 25 mg/L (≈ 39.9 µM) | 25 mg/L (≈ 39.9 µM) | 25 mg/L (≈ 39.9 µM) | 12.5 mg/L (≈ 19.9 µM) | 1.56 mg/L (≈ 2.49 µM) | 25 mg/L (≈ 39.9 µM) | 1.56 mg/L (≈ 2.49 µM) | 3.12 mg/L (≈ 4.98 µM) | 6.25 mg/L (≈ 9.97 µM) | 50 mg/L (≈ 79.8 µM) |
| Oc1ccc(Cc2cc(O)c(O)cc2Cl)cc1O | > 100 mg/L | 100 mg/L (≈ 375 µM) | > 100 mg/L | > 100 mg/L | > 100 mg/L | > 100 mg/L | > 100 mg/L | > 100 mg/L | > 100 mg/L | > 100 mg/L |
| Oc1cc(Cl)c(Cc2cc(O)c(O)cc2Cl)cc1O | 50 mg/L (≈ 166 µM) | 25 mg/L (≈ 83 µM) | 50 mg/L (≈ 166 µM) | 50 mg/L (≈ 166 µM) | > 100 mg/L | 50 mg/L (≈ 166 µM) | 50 mg/L (≈ 166 µM) | > 100 mg/L | > 100 mg/L | > 100 mg/L |
| Oc1ccccc1Cc1cccc(Cl)c1O | 50 mg/L (≈ 213 µM) | 50 mg/L (≈ 213 µM) | 100 mg/L (≈ 426 µM) | 100 mg/L (≈ 426 µM) | 100 mg/L (≈ 426 µM) | 100 mg/L (≈ 426 µM) | 12.5 mg/L (≈ 53.3 µM) | 100 mg/L (≈ 426 µM) | 50 mg/L (≈ 213 µM) | 100 mg/L (≈ 426 µM) |
| Oc1ccc(Cc2cc(O)c(O)cc2Br)cc1O | > 100 mg/L | 100 mg/L (≈ 321 µM) | > 100 mg/L | > 100 mg/L | > 100 mg/L | > 100 mg/L | > 100 mg/L | > 100 mg/L | > 100 mg/L | > 100 mg/L |
| Brc1cc2c(cc1Cc1cc3c(cc1Br)OCO3)OCO2 | > 100 mg/L | > 100 mg/L | > 100 mg/L | > 100 mg/L | > 100 mg/L | > 100 mg/L | > 100 mg/L | > 100 mg/L | > 100 mg/L | > 100 mg/L |
| C[C@@H]1[C@H](O)[C@@H](C)/C=C/C=C/C=C/C=C/C=C/C=C/C=C/[C@H](O[C@@H]2O[C@H](C)[C@@H](O)[C@H](N)[C@@H]2O)C[C@@H]2O[C@](O)(C[C@@H](O)C[C@@H](O)[C@H](O)CC[C@@H](O)C[C@@H](O)CC(=O)O[C@H]1C)C[C@H](O)[C@H]2C(=O)O [AMPHOTERICIN B] | – | – | – | – | 3.12 mg/L (≈ 3.38 µM) | – | 3.12 mg/L (≈ 3.38 µM) | 3.12 mg/L (≈ 3.38 µM) | 6.25 mg/L (≈ 6.76 µM) | – |
| CC1(C)S[C@@H]2[C@H](NC(=O)[C@H](N)c3ccccc3)C(=O)N2[C@H]1C(=O)O [AMPICILLIN] | 1.56 mg/L (≈ 4.46 µM) | 1.56 mg/L (≈ 4.46 µM) | 3.12 mg/L (≈ 8.93 µM) | 3.12 mg/L (≈ 8.93 µM) | – | 1.56 mg/L (≈ 4.46 µM) | – | – | – | 12.5 mg/L (≈ 35.8 µM) |
| Oc1ccc(Cl)cc1Cc1cc(Cl)ccc1O [DICHLOROPHEN] | 12.5 mg/L (≈ 46.4 µM) | 12.5 mg/L (≈ 46.4 µM) | 6.25 mg/L (≈ 23.2 µM) | 12.5 mg/L (≈ 46.4 µM) | 50 mg/L (≈ 186 µM) | 12.5 mg/L (≈ 46.4 µM) | 12.5 mg/L (≈ 46.4 µM) | 50 mg/L (≈ 186 µM) | 25 mg/L (≈ 92.9 µM) | 100 mg/L (≈ 372 µM) |
